Measurements reported in ChEMBL document CHEMBL4507289, “Data for DCP probe GSM1” (2021).

Columns and labels:
[1] = molecular target: Cyclin-dependent kinase-like 3 (Homo sapiens) (UniProt Q8IVW4); settings: Compound concentration 1000.0 nM
[2] = test system: Receptor-type tyrosine-protein kinase FLT3 (Homo sapiens), P36888 [N841I]; settings: Compound concentration 1000.0 nM
[3] = molecular target: Dual serine/threonine and tyrosine protein kinase (Homo sapiens) (UniProt Q6XUX3); settings: Compound concentration 1000.0 nM
[4] = molecular target: Protein-tyrosine kinase 6 (Homo sapiens) (UniProt Q13882); settings: Compound concentration 1000.0 nM
[5] = molecular target: Serine/threonine-protein kinase PLK1 (Homo sapiens) (UniProt P53350); settings: Compound concentration 1000.0 nM
[6] = molecular target: Mitogen-activated protein kinase kinase kinase 3 (Homo sapiens) (UniProt Q99759); settings: Compound concentration 1000.0 nM
Sequence of Mitogen-activated protein kinase kinase kinase 3 (Homo sapiens) (Q99759 whole entry): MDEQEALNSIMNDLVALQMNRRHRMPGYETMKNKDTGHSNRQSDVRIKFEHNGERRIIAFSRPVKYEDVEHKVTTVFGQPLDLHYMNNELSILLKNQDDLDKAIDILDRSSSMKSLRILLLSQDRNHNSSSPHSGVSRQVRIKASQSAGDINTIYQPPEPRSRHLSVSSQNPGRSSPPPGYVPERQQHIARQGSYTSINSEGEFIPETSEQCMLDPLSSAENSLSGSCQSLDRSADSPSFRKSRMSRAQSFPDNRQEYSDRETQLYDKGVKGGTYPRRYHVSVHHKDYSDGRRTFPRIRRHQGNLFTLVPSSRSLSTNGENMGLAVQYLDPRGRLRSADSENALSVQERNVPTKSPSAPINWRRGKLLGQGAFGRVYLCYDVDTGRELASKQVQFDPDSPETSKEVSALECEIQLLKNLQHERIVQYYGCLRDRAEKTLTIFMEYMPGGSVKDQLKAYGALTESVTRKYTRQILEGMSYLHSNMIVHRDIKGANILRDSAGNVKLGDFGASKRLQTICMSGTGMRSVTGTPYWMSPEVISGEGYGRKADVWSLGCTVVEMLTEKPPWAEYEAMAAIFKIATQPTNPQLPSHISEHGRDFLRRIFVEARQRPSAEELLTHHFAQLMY

[7] = molecular target: cAMP-dependent protein kinase catalytic subunit beta (Homo sapiens) (UniProt P22694); settings: Compound concentration 1000.0 nM
[8] = molecular target: Mitogen-activated protein kinase 6 (Homo sapiens) (UniProt Q16659); settings: Compound concentration 1000.0 nM
[9] = molecular target: Mitogen-activated protein kinase kinase kinase 9 (Homo sapiens) (UniProt P80192); settings: Compound concentration 1000.0 nM
[10] = molecular target: Myosin light chain kinase family member 4 (Homo sapiens) (UniProt Q86YV6); settings: Compound concentration 1000.0 nM
Sequence of Myosin light chain kinase family member 4 (Homo sapiens) (Q86YV6 whole entry): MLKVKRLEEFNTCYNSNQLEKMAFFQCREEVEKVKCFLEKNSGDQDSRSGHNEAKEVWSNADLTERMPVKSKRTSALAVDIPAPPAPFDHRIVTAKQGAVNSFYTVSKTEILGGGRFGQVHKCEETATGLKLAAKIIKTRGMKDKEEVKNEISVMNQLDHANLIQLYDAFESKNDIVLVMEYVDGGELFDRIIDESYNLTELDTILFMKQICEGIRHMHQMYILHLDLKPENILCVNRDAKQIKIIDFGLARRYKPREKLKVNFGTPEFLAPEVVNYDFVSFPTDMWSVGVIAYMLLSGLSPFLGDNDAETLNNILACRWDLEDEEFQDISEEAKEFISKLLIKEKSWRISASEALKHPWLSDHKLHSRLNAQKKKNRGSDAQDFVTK

[11] = molecular target: Histamine H3 receptor (Homo sapiens) (UniProt Q9Y5N1); settings: Compound concentration 10.0 uM
[12] = molecular target: Ribosomal protein S6 kinase alpha-6 (Homo sapiens) (UniProt Q9UK32); settings: Compound concentration 1000.0 nM
[13] = molecular target: Histamine H4 receptor (Homo sapiens) (UniProt Q9H3N8); settings: Compound concentration 10.0 uM
[14] = molecular target: Serine/threonine-protein kinase BRSK2 (Homo sapiens) (UniProt Q8IWQ3); settings: Compound concentration 1000.0 nM
[15] = test system: Tyrosine-protein kinase ABL1 (Homo sapiens), P00519 [M351T]; settings: Compound concentration 1000.0 nM
[16] = molecular target: Serine/threonine-protein kinase WNK4 (Homo sapiens) (UniProt Q96J92); settings: Compound concentration 1000.0 nM
Sequence of Serine/threonine-protein kinase WNK4 (Homo sapiens) (Q96J92 whole entry): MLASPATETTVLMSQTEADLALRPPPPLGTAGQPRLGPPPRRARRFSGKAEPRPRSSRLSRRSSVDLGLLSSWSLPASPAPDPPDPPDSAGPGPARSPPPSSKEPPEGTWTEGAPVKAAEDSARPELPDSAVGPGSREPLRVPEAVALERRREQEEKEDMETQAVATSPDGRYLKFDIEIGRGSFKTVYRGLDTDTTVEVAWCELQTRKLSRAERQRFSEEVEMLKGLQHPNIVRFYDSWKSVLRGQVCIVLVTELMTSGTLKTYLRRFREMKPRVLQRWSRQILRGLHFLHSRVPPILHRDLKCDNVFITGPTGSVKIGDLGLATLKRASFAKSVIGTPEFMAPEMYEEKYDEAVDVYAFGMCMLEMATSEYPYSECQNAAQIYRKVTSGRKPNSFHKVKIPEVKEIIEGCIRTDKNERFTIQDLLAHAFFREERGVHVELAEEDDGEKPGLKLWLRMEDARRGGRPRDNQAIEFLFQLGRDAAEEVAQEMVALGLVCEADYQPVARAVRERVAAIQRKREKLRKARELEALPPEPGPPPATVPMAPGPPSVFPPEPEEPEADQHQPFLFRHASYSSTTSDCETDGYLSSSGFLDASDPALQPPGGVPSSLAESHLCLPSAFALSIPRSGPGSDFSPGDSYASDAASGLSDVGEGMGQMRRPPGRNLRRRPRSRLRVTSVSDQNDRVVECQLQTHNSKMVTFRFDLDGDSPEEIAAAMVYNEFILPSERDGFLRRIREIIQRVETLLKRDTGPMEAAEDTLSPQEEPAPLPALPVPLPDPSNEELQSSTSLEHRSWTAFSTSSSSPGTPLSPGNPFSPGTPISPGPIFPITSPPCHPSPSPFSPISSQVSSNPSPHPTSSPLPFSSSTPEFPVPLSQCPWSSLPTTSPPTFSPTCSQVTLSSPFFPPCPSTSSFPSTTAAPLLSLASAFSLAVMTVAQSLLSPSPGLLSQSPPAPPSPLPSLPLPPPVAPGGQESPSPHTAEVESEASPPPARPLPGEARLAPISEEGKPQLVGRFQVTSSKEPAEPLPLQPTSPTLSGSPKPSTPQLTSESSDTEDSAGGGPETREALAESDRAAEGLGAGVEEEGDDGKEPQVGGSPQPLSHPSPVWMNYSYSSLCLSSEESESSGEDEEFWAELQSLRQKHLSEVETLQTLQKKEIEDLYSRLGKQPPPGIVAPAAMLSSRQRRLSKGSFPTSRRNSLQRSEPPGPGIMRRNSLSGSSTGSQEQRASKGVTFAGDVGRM

[17] = molecular target: Serine/threonine-protein kinase 38-like (Homo sapiens) (UniProt Q9Y2H1); settings: Compound concentration 1000.0 nM
[18] = molecular target: Non-receptor tyrosine-protein kinase TYK2 (Homo sapiens) (UniProt P29597); settings: Compound concentration 1000.0 nM
[19] = molecular target: Leucine-rich repeat serine/threonine-protein kinase 2 (Homo sapiens) (UniProt Q5S007); settings: Compound concentration 1000.0 nM
[20] = molecular target: Epithelial discoidin domain-containing receptor 1 (Homo sapiens) (UniProt Q08345); settings: Compound concentration 1000.0 nM
[21] = molecular target: Serine/threonine-protein kinase ICK (Homo sapiens) (UniProt Q9UPZ9); settings: Compound concentration 1000.0 nM
[22] = molecular target: Activin receptor type-1B (Homo sapiens) (UniProt P36896); settings: Compound concentration 1000.0 nM
[23] = molecular target: RAF proto-oncogene serine/threonine-protein kinase (Homo sapiens) (UniProt P04049); settings: Compound concentration 1000.0 nM
Sequence of RAF proto-oncogene serine/threonine-protein kinase (Homo sapiens) (P04049 whole entry): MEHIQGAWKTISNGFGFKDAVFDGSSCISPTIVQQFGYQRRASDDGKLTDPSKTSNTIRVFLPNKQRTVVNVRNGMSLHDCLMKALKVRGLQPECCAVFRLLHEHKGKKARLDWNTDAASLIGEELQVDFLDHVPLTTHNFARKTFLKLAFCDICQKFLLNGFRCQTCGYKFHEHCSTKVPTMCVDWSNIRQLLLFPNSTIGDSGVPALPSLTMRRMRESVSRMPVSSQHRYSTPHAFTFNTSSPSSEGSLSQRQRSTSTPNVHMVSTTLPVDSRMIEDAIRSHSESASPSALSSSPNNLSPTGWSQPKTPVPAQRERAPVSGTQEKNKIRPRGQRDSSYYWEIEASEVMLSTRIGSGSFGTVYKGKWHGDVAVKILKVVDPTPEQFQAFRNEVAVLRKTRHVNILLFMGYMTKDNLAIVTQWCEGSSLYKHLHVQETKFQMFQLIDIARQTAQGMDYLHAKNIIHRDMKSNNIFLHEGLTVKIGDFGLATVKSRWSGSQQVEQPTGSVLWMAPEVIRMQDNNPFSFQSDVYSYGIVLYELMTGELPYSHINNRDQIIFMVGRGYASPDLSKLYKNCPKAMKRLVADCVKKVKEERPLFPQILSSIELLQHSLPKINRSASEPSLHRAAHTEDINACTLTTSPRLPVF

[24] = molecular target: Sigma intracellular receptor 2 (Homo sapiens, UniProt Q5BJF2); settings: Compound concentration 10.0 uM
Sequence of Sigma intracellular receptor 2 (Q5BJF2 whole entry): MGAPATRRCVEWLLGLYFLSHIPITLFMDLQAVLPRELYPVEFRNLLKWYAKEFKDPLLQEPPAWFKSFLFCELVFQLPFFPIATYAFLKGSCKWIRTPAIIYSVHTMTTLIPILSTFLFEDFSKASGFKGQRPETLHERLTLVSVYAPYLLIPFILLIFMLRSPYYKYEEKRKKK

[25] = test system: Tyrosine-protein kinase ABL1 (Homo sapiens), P00519 [Q252H]; settings: Compound concentration 1000.0 nM
[26] = test system: Serine/threonine-protein kinase B-raf (Homo sapiens), P15056 [V600E]; settings: Compound concentration 1000.0 nM
[27] = molecular target: Calcium/calmodulin-dependent protein kinase type II subunit alpha (Homo sapiens) (UniProt Q9UQM7); settings: Compound concentration 1000.0 nM
[28] = molecular target: Serine/threonine-protein kinase Nek2 (Homo sapiens) (UniProt P51955); settings: Compound concentration 1000.0 nM
[29] = molecular target: Mitogen-activated protein kinase 7 (Homo sapiens) (UniProt Q13164); settings: Compound concentration 1000.0 nM
[30] = molecular target: Serine/threonine-protein kinase 35 (Homo sapiens) (UniProt Q8TDR2); settings: Compound concentration 1000.0 nM
Sequence of Serine/threonine-protein kinase 35 (Homo sapiens) (Q8TDR2 whole entry): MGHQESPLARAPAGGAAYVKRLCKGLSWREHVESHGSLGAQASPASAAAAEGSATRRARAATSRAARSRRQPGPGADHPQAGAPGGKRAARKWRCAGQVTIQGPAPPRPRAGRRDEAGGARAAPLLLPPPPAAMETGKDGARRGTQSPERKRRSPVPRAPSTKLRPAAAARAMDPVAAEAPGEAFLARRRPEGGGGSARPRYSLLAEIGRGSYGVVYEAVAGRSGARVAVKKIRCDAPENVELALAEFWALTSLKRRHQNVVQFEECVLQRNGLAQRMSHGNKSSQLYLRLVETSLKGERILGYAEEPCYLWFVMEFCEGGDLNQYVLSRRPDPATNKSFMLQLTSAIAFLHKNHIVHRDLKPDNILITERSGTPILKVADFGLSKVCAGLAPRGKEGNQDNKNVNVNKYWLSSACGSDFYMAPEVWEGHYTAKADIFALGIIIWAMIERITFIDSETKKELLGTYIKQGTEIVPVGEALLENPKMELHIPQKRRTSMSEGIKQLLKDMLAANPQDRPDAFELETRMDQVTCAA

[31] = molecular target: Mitogen-activated protein kinase 11 (Homo sapiens) (UniProt Q15759); settings: Compound concentration 1000.0 nM
Sequence of Mitogen-activated protein kinase 11 (Homo sapiens) (Q15759 whole entry): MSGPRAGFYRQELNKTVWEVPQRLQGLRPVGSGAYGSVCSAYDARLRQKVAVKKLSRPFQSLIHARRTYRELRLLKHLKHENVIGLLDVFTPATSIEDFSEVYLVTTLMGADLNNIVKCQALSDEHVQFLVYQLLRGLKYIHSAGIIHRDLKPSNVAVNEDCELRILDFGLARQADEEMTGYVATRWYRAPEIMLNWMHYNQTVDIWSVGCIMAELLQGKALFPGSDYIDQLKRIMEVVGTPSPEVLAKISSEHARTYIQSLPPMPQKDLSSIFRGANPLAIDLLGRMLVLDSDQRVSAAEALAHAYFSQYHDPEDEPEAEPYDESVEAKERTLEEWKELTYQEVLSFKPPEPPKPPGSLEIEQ

[32] = molecular target: Calcium/calmodulin-dependent protein kinase type IV (Homo sapiens) (UniProt Q16566); settings: Compound concentration 1000.0 nM
[33] = molecular target: Fibroblast growth factor receptor 1 (Homo sapiens) (UniProt P11362); settings: Compound concentration 1000.0 nM
[34] = molecular target: Homeodomain-interacting protein kinase 2 (Homo sapiens) (UniProt Q9H2X6); settings: Compound concentration 1000.0 nM
[35] = test system: Tyrosine-protein kinase ABL1 (Homo sapiens), P00519 [H396P]; settings: Compound concentration 1000.0 nM
[36] = molecular target: 3-phosphoinositide-dependent protein kinase 1 (Homo sapiens) (UniProt O15530); settings: Compound concentration 1000.0 nM
[37] = test system: Tyrosine-protein kinase ABL1 (Homo sapiens), P00519 [F317L]; settings: Compound concentration 1000.0 nM
[38] = molecular target: Cyclin-dependent kinase 4 (Homo sapiens) (UniProt P11802); settings: Compound concentration 1000.0 nM
[39] = molecular target: Cyclin-dependent kinase 2 homolog (Plasmodium falciparum (isolate 3D7)) (UniProt P61075); settings: Compound concentration 1000.0 nM
[40] = molecular target: Calcium-dependent protein kinase 1 (Plasmodium falciparum) (UniProt P62344); settings: Compound concentration 1000.0 nM
Sequence of Calcium-dependent protein kinase 1 (Plasmodium falciparum) (P62344 2-524 limits assumed): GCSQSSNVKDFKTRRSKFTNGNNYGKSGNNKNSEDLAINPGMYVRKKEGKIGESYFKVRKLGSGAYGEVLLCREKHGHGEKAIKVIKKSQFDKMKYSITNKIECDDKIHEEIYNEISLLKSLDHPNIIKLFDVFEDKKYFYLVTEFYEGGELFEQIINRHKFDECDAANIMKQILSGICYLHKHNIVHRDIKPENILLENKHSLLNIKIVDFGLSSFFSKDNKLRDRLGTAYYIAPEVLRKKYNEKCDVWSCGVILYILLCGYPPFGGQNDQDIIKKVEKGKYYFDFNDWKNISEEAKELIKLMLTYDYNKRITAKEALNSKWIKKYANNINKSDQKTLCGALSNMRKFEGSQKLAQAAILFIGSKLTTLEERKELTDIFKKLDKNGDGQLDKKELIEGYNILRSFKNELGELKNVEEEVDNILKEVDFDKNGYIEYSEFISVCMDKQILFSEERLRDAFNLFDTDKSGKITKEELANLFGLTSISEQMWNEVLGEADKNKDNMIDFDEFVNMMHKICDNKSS

[41] = molecular target: Dual specificity mitogen-activated protein kinase kinase 5 (Homo sapiens) (UniProt Q13163); settings: Compound concentration 1000.0 nM
[42] = molecular target: Platelet-derived growth factor receptor beta (Homo sapiens) (UniProt P09619); settings: Compound concentration 1000.0 nM
[43] = molecular target: Dual specificity tyrosine-phosphorylation-regulated kinase 1B (Homo sapiens) (UniProt Q9Y463); settings: Compound concentration 1000.0 nM
[44] = molecular target: Myosin-IIIb (Homo sapiens) (UniProt Q8WXR4); settings: Compound concentration 1000.0 nM
[45] = molecular target: RAC-beta serine/threonine-protein kinase (Homo sapiens) (UniProt P31751); settings: Compound concentration 1000.0 nM
Sequence of RAC-beta serine/threonine-protein kinase (Homo sapiens) (P31751 whole entry): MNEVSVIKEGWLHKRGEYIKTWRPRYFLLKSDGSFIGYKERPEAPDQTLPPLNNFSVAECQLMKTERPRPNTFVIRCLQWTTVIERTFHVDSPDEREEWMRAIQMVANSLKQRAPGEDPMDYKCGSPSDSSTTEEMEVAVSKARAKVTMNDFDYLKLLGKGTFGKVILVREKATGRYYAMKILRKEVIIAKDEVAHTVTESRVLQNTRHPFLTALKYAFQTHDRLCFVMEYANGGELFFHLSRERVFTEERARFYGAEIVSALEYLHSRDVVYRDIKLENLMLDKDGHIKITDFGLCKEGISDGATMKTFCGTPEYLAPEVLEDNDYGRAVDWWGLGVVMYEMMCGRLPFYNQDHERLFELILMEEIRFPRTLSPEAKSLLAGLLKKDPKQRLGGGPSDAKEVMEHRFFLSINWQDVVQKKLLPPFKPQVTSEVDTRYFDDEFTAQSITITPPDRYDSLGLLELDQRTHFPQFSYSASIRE

COc1cc(-c2cn([C@H]3CCc4c(F)cccc4N(CC(F)(F)F)C3=O)nn2)ccc1-n1cnc(C)c1
inactive: residual activity [1] 100% | residual activity [2] 99% | residual activity [3] 100% | residual activity [4] 100% | residual activity [5] 100% | residual activity [6] 100% | residual activity [7] 95% | residual activity [8] 100% | residual activity [9] 100% | residual activity [10] 100% | inhibition [11] 23.3% | residual activity [12] 82% | inhibition [13] -2.49% | residual activity [14] 100% | residual activity [15] 95% | residual activity [16] 100% | residual activity [17] 78% | residual activity [18] 100% | residual activity [19] 57% | residual activity [20] 100% | residual activity [21] 65% | residual activity [22] 100% | residual activity [23] 100% | inhibition [24] 50% | residual activity [25] 100% | residual activity [26] 100% | residual activity [27] 100% | residual activity [28] 100% | residual activity [29] 80% | residual activity [30] 100% | residual activity [31] 90% | residual activity [32] 100% | residual activity [33] 100% | residual activity [34] 100% | residual activity [35] 52% | residual activity [36] 93% | residual activity [37] 85% | residual activity [38] 100% | residual activity [39] 100% | residual activity [40] 100% | residual activity [41] 58% | residual activity [42] 100% | residual activity [43] 100% | residual activity [44] 100% | residual activity [45] 93%

COc1cc(-c2cn([C@H]3CCc4ccccc4N(CC(F)(F)F)C3=O)nn2)ccc1-n1ccc(C)n1
active: inhibition [24] 72% | residual activity [35] 47%
inactive: residual activity [1] 88% | residual activity [2] 100% | residual activity [3] 100% | residual activity [4] 100% | residual activity [5] 84% | residual activity [6] 88% | residual activity [7] 81% | residual activity [8] 100% | residual activity [9] 91% | residual activity [10] 100% | inhibition [11] 20.9% | residual activity [12] 81% | inhibition [13] 9.63% | residual activity [14] 97% | residual activity [15] 64% | residual activity [16] 100% | residual activity [17] 75% | residual activity [18] 100% | residual activity [19] 54% | residual activity [20] 100% | residual activity [21] 63% | residual activity [22] 83% | residual activity [23] 98% | residual activity [25] 71% | residual activity [26] 97% | residual activity [27] 85% | residual activity [28] 100% | residual activity [29] 100% | residual activity [30] 100% | residual activity [31] 82% | residual activity [32] 100% | residual activity [33] 99% | residual activity [34] 82% | residual activity [36] 100% | residual activity [37] 64% | residual activity [38] 90% | residual activity [39] 100% | residual activity [40] 99% | residual activity [41] 74% | residual activity [42] 100% | residual activity [43] 100% | residual activity [44] 100% | residual activity [45] 93%
